Source: patent US8158621B2, “Methods of treating or preventing autoimmune diseases with 2,4-pyrimidinediamine compounds” (Rigel Pharmaceuticals, Inc., priority 2002, dated 2012)

system: Human Jurkat T-cells (clone N); test: Jurkat T-cell activation (anti-TCR, CD69 upregulation); assay type: cell-based; conditions: not given
Experimental: The screening process took place over three days.
On the first day of the screen, cultured cells were spun down on a centrifuge (1000 rpm, 5 minutes) and resuspended at 3.0×10^5 cells/ml in RPMI+5% FBS. On the second day of the screen, cells were spun down at 1000 rpm for 5 minutes and resuspended in RPMI+5% FBS at 1.3×10^5 cells/ml. 85 μl of this cell suspension were added to the wells of U-bottom 96 well plates (Corning) 85 μl of compound or diluted RPMI+5% FBS (as a control) only was added to each well and incubated at 37° C. for 1 hour. The cells were then stimulated with anti-TCR (C305) at: 500 ng/ml by adding a 8× solution in 25 μl to the plated cells. The cells were then incubated at 37° C. for 20 hrs.
On the third day of the screen, the plates were spun at 2500 RPM for 1 minute on a Beckman GS-6R centrifuge, and the medium was then removed. 50 μl staining solution (1:100 dilution of anti-CD69-APC antibody (Becton Dickenson) in PBS+2% FBS) was then added to each well, followed by incubation of the plates 4 degrees for 20 minutes in the dark. 150 μl of wash buffer (PBS+2% FBS) was then added to each well, and the plates were spun at 3000 RPM for 1 minute. The supernatant was again removed, and the pellet was resuspended by vortexing gently. 75 μl of PBS+2% FBS +Cytofix (1:4 dilution) was then added, the plates gently vortexed and wrap in aluminum foil. Cells from the plates were read using a flow cytometer coupled to an automated liquid handling system.
Varied concentrations of compound were compared to solvent only to determine the inhibition of T-cell activation IC50 of each compound.

| Structure (SMILES) | IC50 |
| --- | --- |
| COC(=O)C(C)Oc1ccc(Nc2ncc(F)c(Nc3ccc(OC(C)C(=O)OC)cc3)n2)cc1 (mixture of isomers) [Compound R926254] | > 10 µM |
| CC1Sc2ccc(Nc3ncc(F)c(Nc4cccc(O)c4)n3)cc2NC1=O (racemic) [Compound R909263] | 6.2 µM |
| COC(=O)C(C)Oc1ccc(Nc2ccnc(Nc3ccc(OC(C)C(=O)OC)cc3)n2)cc1 (racemic) [Compound R926257] | > 10 µM |
| CCOC(=O)C(C)Oc1ccc(Nc2ncc(C)c(Nc3ccc(OC(C)C(=O)OCC)cc3)n2)cc1 (racemic) [Compound R926259] | 13 µM |
| Nc1cccc(Nc2nc(Nc3cccc(NC(=O)CCC(C(=O)O)N4C(=O)c5ccccc5C4=O)c3)ncc2F)c1 (racemic) [Compound R950251] | > 10 µM |
| Nc1cccc(Nc2nc(Nc3cccc(NC(=O)CCC(N)C(=O)O)c3)ncc2F)c1 (racemic) [Compound R950255] | > 10 µM |
| O=C1COc2cc(Nc3nc(Nc4cccc(O)c4)ncc3F)ccc2N1 [Compound R908698] | 3.75 µM |
| CNC(=O)COc1cccc(Nc2ncc(F)c(Nc3ccc4c(c3)OCC(=O)N4)n2)c1 [Compound R908700] | 13.7 µM |
| CNC(=O)COc1cccc(Nc2ncc(F)c(Nc3ccc4c(c3)OCCN4C)n2)c1 [Compound R908705] | 5.88 µM |
| Fc1cnc(Nc2ccc3c(c2)CCO3)nc1Nc1ccc2c(c1)CCO2 [Compound R909237] | > 10 µM |
| O=C(COc1ccc(Nc2ncc(F)c(Nc3ccc4c(c3)OCCO4)n2)cc1)NCCO [Compound R909239] | 3.06 µM |
| CNC(=O)COc1ccc(Nc2ncc(F)c(Nc3ccc4c(c3)OCCO4)n2)cc1 [Compound R909240] | 2.85 µM |
| CCOC(=O)COc1cccc(Nc2ncc(F)c(Nc3ccc4c(c3)NCCO4)n2)c1 [Compound R909242] | 3.8 µM |
| CNC(=O)COc1cccc(Nc2nc(Nc3ccc4c(c3)NCCO4)ncc2F)c1 [Compound R909247] | 3 µM |
| CC(O)CNC(=O)COc1cccc(Nc2ncc(F)c(Nc3ccc4c(c3)NCCO4)n2)c1 (centres unmarked) [Compound R909251] | 0.664 µM |
| O=C(COc1cccc(Nc2ncc(F)c(Nc3ccc4c(c3)NCCO4)n2)c1)NCCCO [Compound R909252] | 0.655 µM |
| CNC(=O)COc1cccc(Nc2nc(Nc3ccc(OCCN(C)C)cc3)ncc2F)c1 [Compound R909253] | 3.08 µM |
| CNC(=O)COc1cccc(Nc2ncc(F)c(Nc3ccc4c(c3)N(C)CCO4)n2)c1 [Compound R909259] | > 10 µM |
| CNC(=O)COc1cccc(Nc2ncc(F)c(Nc3ccc4c(c3)N(C)C(=O)CO4)n2)c1 [Compound R909260] | 3.33 µM |
| CNC(=O)COc1cccc(Nc2ncc(F)c(Nc3ccc4c(c3)OCC(=O)N4C)n2)c1 [Compound R909261] | 2.94 µM |
| CCOC(=O)c1ncn2c1COc1c(Nc3nc(Nc4cccc(OCC(=O)NC)c4)ncc3F)cccc1-2 [Compound R909265] | 12 µM |

| Structure (SMILES) | IC50 |
| --- | --- |
| CCOC(=O)COc1cccc(Nc2ncc(F)c(Nc3ccc4c(c3)OCCN4)n2)c1 [Compound R909266] | 13 µM |
| CN(C)C(=O)COc1cccc(Nc2ncc(F)c(Nc3ccc4c(c3)NCCO4)n2)c1 [Compound R909290] | 1.56 µM |
| CNC(=O)COc1cccc(Nc2ncc(F)c(Nc3ccc4c(c3)NCCO4)n2)c1 [Compound R920395] | 0.726 µM |
| FC(F)(F)c1cnc(Nc2ccc3c(c2)OCCO3)nc1Nc1ccc2c(c1)OCCO2 [Compound R920669] | 19.8 µM |
| CCOc1ccc(Nc2nc(Nc3ccc4c(c3)OCCO4)ncc2F)cc1 [Compound R920670] | 14.3 µM |
| Oc1cccc(Nc2nc(Nc3ccc(OCc4nnn[nH]4)cc3)ncc2F)c1 [Compound R920818] | > 10 µM |
| Oc1cccc(Nc2ccnc(Nc3ccc(OCc4nn[nH]n4)cc3)n2)c1 [Compound R920819] | > 10 µM |
| Cc1cnc(Nc2ccc(OCc3nnn[nH]3)cc2)nc1Nc1cccc(O)c1 [Compound R920820] | > 10 µM |
| Oc1cccc(Nc2nc(Nc3ccc(OCc4nnn[nH]4)cc3)ncc2C(F)(F)F)c1 [Compound R920846] | 10.4 µM |
| Cn1nnnc1COc1ccc(Nc2ncc(F)c(Nc3cccc(O)c3)n2)cc1 [Compound R920861] | 3.28 µM |
| Cc1cnc(Nc2ccc(OCc3nnn(C)n3)cc2)nc1Nc1cccc(O)c1 [Compound R920893] | 1.4 µM |
| Cc1cnc(Nc2ccc(OCc3nnnn3C)cc2)nc1Nc1cccc(O)c1 [Compound R920894] | 2.02 µM |
| Cn1nnc(COc2ccc(Nc3nccc(Nc4cccc(O)c4)n3)cc2)n1 [Compound R920910] | 2.38 µM |
| Cn1nnnc1COc1ccc(Nc2nccc(Nc3cccc(O)c3)n2)cc1 [Compound R920917] | 2.65 µM |
| CCOC(=O)COc1ccc(Nc2ncc(F)c(Nc3ccc4c(c3)OCCO4)n2)cc1 [Compound R925747] | > 10 µM |
| CN(C)C(=O)COc1cccc(Nc2ncc(F)c(Nc3ccc4c(c3)OCCO4)n2)c1 [Compound R925755] | 1.91 µM |
| C[C@H](Nc1nc(Nc2ccc3c(c2)OCCO3)ncc1F)[C@H](O)c1ccccc1 [Compound R925766] | > 10 µM |
| C[C@H](Nc1ncc(F)c(N[C@@H](C)[C@H](O)c2ccccc2)n1)[C@H](O)c1ccccc1 [Compound R925767] | > 10 µM |
| Fc1cnc(NCc2ccc3c(c2)OCO3)nc1NCc1ccc2c(c1)OCO2 [Compound R925770] | > 10 µM |
| CCOC(=O)COc1ccc(Nc2ncc(C#N)c(Nc3ccc(OCC(=O)OCC)cc3)n2)cc1 [Compound R925775] | > 10 µM |
| CCOC(=O)COc1ccc(Nc2ncc(Br)c(Nc3ccc(OCC(=O)OCC)cc3)n2)cc1 [Compound R925779] | > 10 µM |

same assay, conditions: Homo sapiens, Jurkat

| Structure (SMILES) | IC50 |
| --- | --- |
| Fc1cnc(NCCc2ccccc2)nc1Nc1ccc2c(c1)OCCO2 (racemic) [Compound R908697] | > 10 µM |
| CC(Nc1nc(Nc2cccc(O)c2)ncc1F)c1ccc(F)cc1 (racemic) [Compound R935021] | > 10 µM |
| CC(Nc1nc(Nc2cccc(O)c2)ncc1Br)c1ccc(F)cc1 (racemic) [Compound R935023] | > 10 µM |
| CCOc1ccc(Nc2ncc(F)c(Nc3ccc(OCC)cc3)n2)cc1 [Compound R070790, N2,N4-bis(4-ethoxyphenyl)-5-fluoro-2,4-pyrimidinediamine] | > 10 µM |
| Cc1ccc(CNc2ncc(F)c(Nc3ccc4c(c3)OCCO4)n2)cc1Cl [Compound R908696] | > 10 µM |
| O=C1COc2cc(Nc3ncc(F)c(Nc4cccc(O)c4)n3)ccc2N1 [Compound R908699] | 1.03 µM |
| CN1C(=O)COc2ccc(Nc3nc(Nc4cccc(O)c4)ncc3F)cc21 [Compound R908709] | 3.39 µM |
| Oc1cccc(Nc2nc(Nc3ccc4c(c3)CCO4)ncc2F)c1 [Compound R909250] | > 10 µM |
| CN1C(=O)COc2cc(Nc3nc(Nc4cccc(O)c4)ncc3F)ccc21 [Compound R909264] | 3.24 µM |
| CCCCCCOc1ccc(Nc2ncc(F)c(Nc3ccc4c(c3)OCCO4)n2)cc1 [Compound R920664] | > 10 µM |
| Fc1cnc(Nc2cccnc2)nc1Nc1ccc2c(c1)OCCO2 [Compound R920668] | > 10 µM |
| CCOC(=O)c1cccc(Nc2ncc(F)c(Nc3ccc4c(c3)OCCO4)n2)c1 [Compound R925745] | > 10 µM |
| OCCNc1ncc(F)c(Nc2ccc3c(c2)OCCO3)n1 [Compound R925746] | > 10 µM |
| OCc1cccc(Nc2ncc(F)c(Nc3cccc(CO)c3)n2)c1 [Compound R925757] | > 10 µM |
| OCc1cccc(Nc2nc(Nc3ccc4c(c3)OCCO4)ncc2F)c1 [Compound R925758] | 18.2 µM |
| Nc1nc(N(c2ccc(CO)cc2)c2ccc3c(c2)OCCO3)ncc1F [Compound R925760] | 20.2 µM |
| Nc1nc(N(CC(O)c2ccccc2)c2ccc3c(c2)OCCO3)ncc1F (centres unmarked) [Compound R925765] | > 10 µM |
| OC(CNc1ncc(F)c(NCC(O)c2ccccc2)n1)c1ccccc1 (centres unmarked) [Compound R925768] | > 10 µM |
| Fc1cnc(NCc2ccco2)nc1NCc1ccco1 [Compound R925769] | > 10 µM |
| Brc1cnc(Nc2ccc3c(c2)OCCO3)nc1Nc1ccc2c(c1)OCCO2 [Compound R925771] | 7.19 µM |
| Fc1cnc(NCc2ccccc2)nc1NCc1ccccc1 [Compound R925772] | > 10 µM |
| N#Cc1cnc(Nc2ccc3c(c2)OCCO3)nc1Nc1ccc2c(c1)OCCO2 [Compound R925773] | 14.4 µM |
| N#Cc1cnc(Nc2cccc(O)c2)nc1Nc1cccc(O)c1 [Compound R925774] | 7.5 µM |
| Fc1cnc(Nc2ccc3c(c2)OCO3)nc1Nc1ccc2c(c1)OCO2 [Compound R925776] | 17.1 µM |
| Oc1cccc(Nc2ncc(-c3ccccc3)c(Nc3cccc(O)c3)n2)c1 [Compound R925783] | > 10 µM |
| c1ccc(-c2cnc(Nc3ccc4c(c3)OCCO4)nc2Nc2ccc3c(c2)OCCO3)cc1 [Compound R925784] | > 10 µM |
| c1coc(-c2cnc(Nc3ccc4c(c3)OCCO4)nc2Nc2ccc3c(c2)OCCO3)c1 [Compound R925785] | 3.12 µM |
| Clc1ccc(-c2cnc(Nc3ccc4c(c3)OCCO4)nc2Nc2ccc3c(c2)OCCO3)cc1 [Compound R925786] | > 10 µM |
| Clc1cccc(-c2cnc(Nc3ccc4c(c3)OCCO4)nc2Nc2ccc3c(c2)OCCO3)c1 [Compound R925787] | > 10 µM |
